A short description of data set [1]: Selectivity index, ratio of CC50 for human HepG2.2.15 cells to IC50 for Hepatitis B virus. The conditions noted are these: read-out: Ratio CC50/IC50. The format is toxicity.
Data set [2] relates to Hepatitis B virus. Kind of data set: Antiviral activity against Hepatitis B virus infected in human HepG2.2.15 cells by solid phase radioimmunoassay. The data set is classed as functional, organism-based. The settings on record: HepG2 2.2.15.
Data set [3] is described as follows: Cytotoxicity against human HepG2.2.15 cells. The data set is classed as cell-based, HepG2 2.2.15.
A short description of data set [4]: Toxicity in C57BL/6 mouse infected with Hepatitis B virus assessed as reduction in body weight at 0.23 and 0.93 mmol/kg, po administered bid and observed for 6 days. The settings on record: in vivo, 144 h. The format is organism-based.
Data set [5] is described as follows: AUC (0 to t) in ICR mouse assessed as 4-fluoro-3-[(4-hydroxy-1-piperidyl)sulfonyl]-N-(3,4,5-trifluorophenyl)benzamide level at 50 mg/kg, po. The data set is classed as ADME, organism-based. The conditions noted are these: in vivo.
Data set [6] can be described thus: Half life in ICR mouse at 50 mg/kg, po. The data set is classed as ADME, organism-based. The conditions noted are these: in vivo.
A short description of data set [7]: Solubility of compound assessed as 4-fluoro-3-[(4-hydroxy-1-piperidyl)sulfonyl]-N-(3,4,5-trifluorophenyl)benzamide level at pH 2. The data set is classed as physicochemical. The settings on record: buffer.
Data set [8] in a line: MRT in ICR mouse at 50 mg/kg, po. The format is ADME, organism-based. The settings on record: in vivo.
Data set [9] in a line: MRT in ICR mouse assessed as 4-fluoro-3-[(4-hydroxy-1-piperidyl)sulfonyl]-N-(3,4,5-trifluorophenyl)benzamide level at 50 mg/kg, po. The data set is classed as ADME, organism-based. The conditions noted are these: in vivo.
A short description of data set [10]: AUC (0 to t) in ICR mouse at 50 mg/kg, po. The format is ADME, organism-based. The conditions noted are these: in vivo.
The nature of data set [11]: Tmax in ICR mouse at 50 mg/kg, po. The data set is classed as ADME, organism-based. The settings on record: in vivo.
A short description of data set [12]: Half life in ICR mouse assessed as 4-fluoro-3-[(4-hydroxy-1-piperidyl)sulfonyl]-N-(3,4,5-trifluorophenyl)benzamide level at 50 mg/kg, po. The format is ADME, organism-based. The conditions noted are these: in vivo.
Data set [13] in a line: Tmax in ICR mouse assessed as 4-fluoro-3-[(4-hydroxy-1-piperidyl)sulfonyl]-N-(3,4,5-trifluorophenyl)benzamide level at 50 mg/kg, po. The format is ADME, organism-based. The settings on record: in vivo.
The nature of data set [14]: Cmax in ICR mouse assessed as 4-fluoro-3-[(4-hydroxy-1-piperidyl)sulfonyl]-N-(3,4,5-trifluorophenyl)benzamide level at 50 mg/kg, po. The format is ADME, organism-based. Details: dose 50 mg/kg, route oral. The settings on record: in vivo.
The test system of data set [15] is Hepatitis B virus. Nature of the data set: Antiviral activity against Hepatitis B virus infected in orally dosed C57BL/6 mouse assessed as reduction in viral DNA administered bid for daily and measured upto 6 days by qRT-PCR analysis. The format is functional, organism-based. (Real-time PCR tracks product formation cycle by cycle.)
Data set [16] relates to Hepatitis B virus. Kind of data set: Antiviral activity against Hepatitis B virus infected in C57BL/6 mouse assessed as reduction in viral DNA at 0.93 mmol/kg, po administered bid and measured on day 2 by qRT-PCR analysis. The format is functional.
Data set [17] can be described thus: Cmax in ICR mouse at 50 mg/kg, po. Details: dose 50 mg/kg, route oral. The data set is classed as ADME, organism-based. The conditions noted are these: in vivo.
In data set [18] the test system is Hepatitis B virus. Nature of the data set: Antiviral activity against Hepatitis B virus infected in C57BL/6 mouse assessed as reduction in viral DNA at 0.93 mmol/kg, po administered bid and measured on day 4 by qRT-PCR analysis. The data set is classed as functional.
Data set [19] concerns Hepatitis B virus. Nature of the data set: Antiviral activity against Hepatitis B virus infected in C57BL/6 mouse assessed as reduction in viral DNA at 0.1 mg/kg, po measured upto 6 days by qRT-PCR analysis. The format is functional.
Data set [20] in a line: Toxicity in C57BL/6 mouse infected with Hepatitis B virus assessed as reduction in body weight at 0.93 mmol/kg, po administered bid and observed for 6 days. The format is organism-based. The conditions noted are these: in vivo, 144 h.
Data set [21] is described as follows: Solubility of compound at pH 2 by HPLC-UV analysis. The format is physicochemical. The settings on record: buffer.

Consider nine compounds from ChEMBL document CHEMBL4619714, “Amino acid prodrugs of NVR3-778: Design, synthesis and anti-HBV activity” (Bioorg Med Chem Lett, 2020).

Molecules are shown by their SMILES. In brackets after ≈: the same amount, converted by molar mass.

Regarding `N[C@@H](Cc1ccccc1)C(=O)OC1CCN(S(=O)(=O)c2cc(C(=O)Nc3cc(F)c(F)c(F)c3)ccc2F)CC1`, the selectivity ratio in [1] is > 28.6. For the same compound, in data set [2], the IC50 (usually the midpoint of a concentration-inhibition curve) worked out at 350 nM. Moreover, the 50% cytotoxic concentration (CC50) – broadly, the concentration at which the toxic effect on the cells reaches its halfway point – in data set [3] is > 10000 nM.

Turning to `NCC(=O)OC1CCN(S(=O)(=O)c2cc(C(=O)Nc3cc(F)c(F)c(F)c3)ccc2F)CC1`, the selectivity ratio in data set [1] is > 7.1. Also, 1400 nM corresponded to half-maximal inhibition in data set [2] (IC50). In addition, in data set [3], the 50% cytotoxic concentration (CC50) was > 10000 nM.

For `CC(C)[C@H](N)C(=O)OC1CCN(S(=O)(=O)c2cc(C(=O)Nc3cc(F)c(F)c(F)c3)ccc2F)CC1`, the Activity entry in data set [4] was “Non-Toxic”; in data set [15], “Dose-dependent effect”; in [16], 0.75 log10IU/ml; in data set [18], 0.67 log10IU/ml. Also, the AUCt in data set [5] turned out to be 258.9 µg·h/mL. The half-life (in general, the time needed for the level to fall by half in the phase considered) in [6] was 1.23 h. Moreover, the solubility – broadly, the dissolved amount per volume that the medium holds – in [7] stood at 700 µg/mL (≈ 1320 µM). Moreover, the results for the mean residence time (MRT) in [8] and in data set [9] were 0.97 h and 4.66 h, respectively. Besides, the selectivity ratio in data set [1] is > 29.4. Further, in data set [10], the AUC(0-t) (usually exposure summed from dosing to a finite time, without extrapolation to infinity) is 6.65 µg·h/mL. The Tmax (usually the time from dosing to the highest level) is 0.25 h in [11] and 0.5 h in data set [13]. For the same compound, the t1/2 in [12] was found to be 3.53 h. In addition, the Cmax (usually the highest concentration seen after dosing) in data set [14] turned out to be 45170 ng/mL; in data set [17], 11500 ng/mL. Further, the 50% inhibitory concentration (IC50) in [2] stood at 340 nM. Also, in data set [3], the CC50 is > 10000 nM.

For the compound `CCC(C)[C@H](N)C(=O)OC1CCN(S(=O)(=O)c2cc(C(=O)Nc3cc(F)c(F)c(F)c3)ccc2F)CC1` (some centres undefined), the selectivity ratio in [1] was > 26.3. The same compound displayed an IC50 in [2] of 380 nM. Also, in data set [3], the CC50 is > 10000 nM.

For `C[C@H](N)C(=O)OC1CCN(S(=O)(=O)c2cc(C(=O)Nc3cc(F)c(F)c(F)c3)ccc2F)CC1`, the selectivity ratio in [1] worked out at 17.2. In data set [2], the IC50 came to 280 nM. Also, it took 4810 nM to reach half-maximal cytotoxicity in data set [3] (CC50).

Regarding `C=C1[C@H](CO)[C@@H](O)C[C@@H]1n1cnc2c(=O)[nH]c(N)nc21.O` [ENTECAVIR], in [19], the Activity turned out to be 1.67 log10IU/ml.

As to `CC(C)(C)[C@H](N)C(=O)OC1CCN(S(=O)(=O)c2cc(C(=O)Nc3cc(F)c(F)c(F)c3)ccc2F)CC1`, in [1], the selectivity ratio is > 17.9. In addition, in data set [2], it took 560 nM to reach half-maximal inhibition (IC50). In addition, the CC50 in data set [3] was > 10000 nM.

Take `CC(C)C[C@H](N)C(=O)OC1CCN(S(=O)(=O)c2cc(C(=O)Nc3cc(F)c(F)c(F)c3)ccc2F)CC1`: in data set [1], the selectivity ratio turned out to be 20.6. Besides, the concentration for half-maximal inhibition (IC50) in data set [2] was 280 nM. The same compound registered a CC50 in [3] of 5770 nM.

For the compound `O=C(Nc1cc(F)c(F)c(F)c1)c1ccc(F)c(S(=O)(=O)N2CCC(O)CC2)c1`, the half-life in [6] was 8.14 h. For the same compound, the mean residence time (MRT) (usually the average time that molecules of a dose stay in the body) in data set [8] was found to be 10.7 h. For the same compound, the selectivity ratio in [1] is 18.5. The compound also showed an AUC(0-t) in [10] of 456 µg·h/mL. Further, the Tmax in [11] amounted to 1.08 h. Also, the Activity entry is “Non-Toxic” in data set [20], 0.53 log10IU/ml in data set [16] and 0.6 log10IU/ml in [18]. Further, the concentration in solution in [21] (solubility) came to 3 µg/mL (≈ 6.94 µM). In data set [2], this compound registered a concentration for half-maximal inhibition (IC50) of 260 nM. Besides, the CC50 in data set [3] turned out to be 4810 nM. The compound also yielded a Cmax in data set [17] of 66100 ng/mL.
